Patent US12642780B2, “Methods and compositions to treat and prevent viral infections and acute respiratory distress syndrome” (priority 2020, dated 2026)

Assays:
BMDM [1] = experiment: Q-PCR quantitation of cytokine mRNAs in LPS-stimulated BMDM; format: cell-based, mouse
Protocol: RNA was extracted using AllPrep DNA/RNA Mini kit, and cDNA was synthesized using SuperScript™ VILO™ cDNA Synthesis Kit. mRNA expression was determined by QPCR in a CFX96 thermal cycler (Biorad) as described (Zhong et al., 2016). Data are presented in arbitrary units and calculated by the 2^(−ΔΔCT) method. Primer sequences were obtained from the NIH qPrimerDepot (http://mouseprimerdepot.nci.nih.gov) and provided by Integrated DNA technologies.

BMDM [2] = experiment: Cytokine secretion by LPS-stimulated BMDM (ELISA); format: cell-based, mouse; settings: LPS-stimulated BMDM, metformin 0.5 mM 16 hrs
Description: Paired antibodies (capture and detection) and standard recombinant mouse IL-1β (R&D Systems), and TNF and IL-6 (eBioscience) were used to determine mouse cytokine concentrations according to manufacturer's instructions.

NLRP3 inflammasome = NLRP3 inflammasome activation in LPS-primed mouse microglia; format: cell-based; settings: different NLRP3 activators, metformin 0.5 mM 16 hrs
[3] = system: alum induced peritonitis model; experiment: Alum-induced peritonitis; format: in vivo, mouse
POLγ = POLγ activity assay in lysates of treated macrophages; format: cell-based, mouse
[4] = BMDM, metformin 0.5 mM 16 h, LPS

`CN(C)C(=N)NC(=N)N` [metformin, N,N-dimethylbiguanide] was tested, and the “Il1b and Il6 mRNA after metformin treatment” value (BMDM [1]; AMPKα1 silenced (shPrkaa1) LPS-treated macrophages) was “still declined”, the “decline in Il1b and Il6 mRNA induction by LPS” value (BMDM [1]; BMDM, metformin 0.5 mM 16 h) was 30-50% and the “induction of Ifnb and Ifng mRNAs” value (BMDM [1]; [4]) was “did not inhibit induction”. For the same molecule, the “induction of Il10 mRNA” value (BMDM [1]; [4]) was “potentiated induction”, the “other cytokine and chemokine mRNAs (Tnf, Il12, Il23, Ccl2, Ccl3, Ccl4, Ccl5)” value (BMDM [1]; BMDM, metformin 0.5 mM 16 h, LPS 100 ng/ml 4 hrs) was “little effect” and the “Il1b and Il6 mRNA expression” value (BMDM [1]; LPS-stimulated Il10−/− BMDM) was “still inhibited”. The IL-6 secretion (BMDM [2]) was “inhibited”, the TNF release (BMDM [2]) was “unaffected” and the “Casp1 p20 and IL-1β secretion” value (NLRP3 inflammasome) was “abrogated”. For the same molecule, the “peritoneal IL-1β and IL-6 production” value ([3]; metformin 0, 10, 50 mg/kg 30 min prior to i.p. alum) was “dose-dependent decline”, the “peritoneal TNF production” value ([3]; metformin 10 or 50 mg/kg 30 min prior to i.p. alum) was “no effect” and the POLγ activity (POLγ; lysates of LPS-stimulated macrophages, assay mix lacking exogenous ATP) was “decreased”. The “effect of AMPKα1 deficiency on POLγ expression or activity” value (POLγ; lysates of metformin treated LPS stimulated BMDM) was “no effect” and the POLγ activity (POLγ; lysates of metformin treated LPS-stimulated macrophages, addition of ATP at 10 mM) was “fully restored”.
